From DBAASP
In brackets after ≈: the same amount, converted by molar mass. Values belong to the compound of their own block, whether it stands above or below them.

Experiments:
Assay in all cases: ≥ marks a high value that may be exact or a test limit, other limits are often not marked, values filed in µg/mL are converted to µM
[1] = tested on: Xanthomonas axonopodis pv. phaseoli ATCC 9563
[2] = tested on: Pseudomonas aeruginosa PAO1
Escherichia coli BL21 = tested on: Escherichia coli BL21
Pseudomonas syringae = tested on: Pseudomonas syringae
[3] = tested on: Streptococcus pyogenes GAS M1T1
[4] = tested on: Acinetobacter baumannii KCTC 2508
[5] = tested on: Klebsiella pneumoniae KCTC 2208
[6] = tested on: Pseudomonas aeruginosa ATCC 27853
[7] = tested on: Escherichia coli NCTC 10418
[8] = tested on: Candida albicans NCPF 1467
[9] = tested on: Staphylococcus aureus NCTC 10788
[10] = tested on: Staphylococcus aureus ATCC 12493
[11] = tested on: Pseudomonas aeruginosa ATCC 10662
Candida tropicalis = tested on: Candida tropicalis
[12] = tested on: Staphylococcus aureus ATCC 25923
Acinetobacter baumannii = tested on: Acinetobacter baumannii
Candida glabrata = tested on: Candida glabrata
[13] = tested on: Staphylococcus epidermidis ATCC 1435
Staphylococcus aureus = tested on: Staphylococcus aureus
Candida albicans = tested on: Candida albicans
Klebsiella pneumoniae = tested on: Klebsiella pneumoniae
Escherichia coli K-12 = tested on: Escherichia coli K-12
[14] = tested on: Staphylococcus aureus NCTC 8325-4
[15] = tested on: Streptococcus sobrinus ATCC 6715
[16] = tested on: Streptococcus sanguinis ATCC 10556
[17] = tested on: Streptococcus mutans UA159
[18] = tested on: Pseudomonas aeruginosa ATCC BAA-427
[19] = tested on: Bacillus subtilis ATCC 6633
[20] = tested on: Klebsiella pneumoniae ATCC 27736

SMILES: CC(C)C[C@H](NC(=O)[C@H](CC(C)C)NC(=O)[C@H](CCCCN)NC(=O)[C@@H]1CCCN1C(=O)[C@H](CC(C)C)NC(=O)[C@@H](N)Cc1ccccc1)C(=O)N[C@@H](C)C(=O)NCC(=O)N[C@@H](CC(C)C)C(=O)N1CCC[C@H]1C(=O)N[C@@H](CO)C(=O)N[C@@H](Cc1ccccc1)C(=O)N[C@@H](CC(C)C)C(=O)N[C@H]1CSSC[C@@H](C(=O)O)NC(=O)[C@H](CCCCN)NC(=O)[C@H](CCCCN)NC(=O)[C@H](Cc2ccccc2)NC(=O)[C@H](C(C)C)NC(=O)[C@H](CC(C)C)NC1=O [FLPKLLAGLPSFLCLVFKKC]
MIC [7]: 16 µM (≈ 35.8 µg/mL)
MIC [8]: 8 µM (≈ 17.9 µg/mL)
MIC [9]: 16 µM (≈ 35.8 µg/mL)
MIC [10]: 8 µM (≈ 17.9 µg/mL)

SMILES: CC(C)C[C@H](NC(=O)[C@H](CC(N)=O)NC(=O)[C@H](CCCN=C(N)N)NC(=O)[C@H](Cc1ccccc1)NC(=O)[C@@H](N)Cc1ccccc1)C(=O)N[C@@H](Cc1c[nH]c2ccccc12)C(=O)N[C@@H](CCCCN)C(=O)NCC(=O)N[C@@H](C)C(=O)N[C@@H](CCCCN)C(=O)N[C@@H](C)C(=O)N[C@@H](C)C(=O)N[C@@H](Cc1ccccc1)C(=O)N[C@@H](CCCN=C(N)N)C(=O)N[C@@H](C)C(=O)NCC(=O)N[C@@H](Cc1cnc[nH]1)C(=O)N[C@@H](C)C(=O)N[C@@H](C)C(=O)N[C@@H](Cc1c[nH]c2ccccc12)C(=O)N[C@@H](CCCN=C(N)N)C(=O)N[C@@H](C)C(=O)O [FFRNLWKGAKAAFRAGHAAWRA]
MIC [11]: 19.7 µM (≈ 50 µg/mL)
MIC (Candida tropicalis): 2.47 µM (≈ 6.25 µg/mL)
MIC [12]: 1.23 µM (≈ 3.12 µg/mL)
MIC (Acinetobacter baumannii): 2.47 µM (≈ 6.25 µg/mL)
MIC (Candida glabrata): ≥ 39.5 µM
MIC [13]: 0.616 µM (≈ 1.56 µg/mL)
MIC (Staphylococcus aureus): 1.23 µM (≈ 3.12 µg/mL)
MIC (Candida albicans): 2.47 µM (≈ 6.25 µg/mL)

SMILES: NCCCC[C@H](NC(=O)[C@H](CCCCN)NC(=O)[C@H](Cc1c[nH]c2ccccc12)NC(=O)[C@H](Cc1c[nH]c2ccccc12)NC(=O)[C@H](CCCCN)NC(=O)[C@H](CCCCN)NC(=O)[C@@H](N)Cc1c[nH]c2ccccc12)C(=O)N[C@@H](Cc1c[nH]c2ccccc12)C(N)=O [WKKWWKKW]
MIC (Klebsiella pneumoniae): 250 µM (≈ 319 µg/mL)
MIC [2]: > 250 µM
MIC (Escherichia coli K-12): 31.3 µM (≈ 39.9 µg/mL)
MIC [14]: ≥ 62.5 µM

SMILES: CC(C)[C@H](NC(=O)[C@H](CCCCN)NC(=O)[C@H](C)NC(=O)[C@H](C)NC(=O)[C@H](CCCCN)NC(=O)[C@H](CCCCN)NC(=O)[C@H](Cc1ccccc1)NC(=O)[C@H](Cc1ccccc1)NC(=O)[C@H](CCCCN)NC(=O)[C@H](CCCCN)NC(=O)[C@H](Cc1c[nH]c2ccccc12)NC(=O)CN)C(=O)NCC(=O)N[C@@H](CCCCN)C(=O)O [GWKKFFKKAAKVGK]
MIC [15]: ≥ 315 µM
MIC [16]: ≥ 315 µM
MIC [17]: ≥ 315 µM

SMILES: NCCCC[C@H](NC(=O)CNC(=O)[C@H](Cc1ccccc1)NC(=O)[C@H](CCCCN)NC(=O)[C@H](Cc1ccccc1)NC(=O)[C@H](Cc1ccccc1)NC(=O)[C@H](CCCCN)NC(=O)[C@H](CCCCN)NC(=O)[C@H](Cc1ccccc1)NC(=O)[C@H](Cc1ccccc1)NC(=O)[C@H](CCCCN)NC(=O)CNC(=O)[C@@H](N)Cc1c[nH]c2ccccc12)C(=O)O [WGKFFKKFFKFGK]
MIC [15]: 18.9 µM (≈ 32 µg/mL)
MIC [16]: 18.9 µM (≈ 32 µg/mL)
MIC [17]: 18.9 µM (≈ 32 µg/mL)

SMILES: CC[C@H](C)[C@H](NC(=O)[C@H](Cc1cnc[nH]1)NC(=O)[C@H](Cc1cnc[nH]1)NC(=O)[C@H](Cc1ccccc1)NC(=O)[C@@H](N)Cc1ccccc1)C(=O)N[C@@H](Cc1ccccc1)C(=O)N[C@@H](CCCN=C(N)N)C(=O)NCC(=O)N[C@@H](C)C(=O)N[C@H](C(=O)N[C@@H](Cc1cnc[nH]1)C(=O)N[C@H](C(=O)NCC(=O)N[C@@H](CCCCN)C(=O)N[C@H](C(=O)N[C@H](C(=O)N[C@@H](Cc1cnc[nH]1)C(=O)N[C@@H](CCCN=C(N)N)C(=O)N[C@@H](CC(C)C)C(=O)N[C@H](C(=O)N[C@H](C(=O)NCC(N)=O)[C@@H](C)O)C(C)C)[C@@H](C)CC)[C@@H](C)O)C(C)C)C(C)C [FFHHIFRGAVHVGKTIHRLVTG]
MIC [18]: 10 µM (≈ 25.3 µg/mL)
MIC [19]: 8 µM (≈ 20.2 µg/mL)
MIC [11]: 9.88 µM (≈ 25 µg/mL)
MIC [20]: 6 µM (≈ 15.2 µg/mL)
MIC (Acinetobacter baumannii): 1.23 µM (≈ 3.1 µg/mL)
MIC [13]: 0.593 µM (≈ 1.5 µg/mL)
MIC (Staphylococcus aureus): 1.23 µM (≈ 3.1 µg/mL)

Next, values leading:

MIC [1]: 2 µM (≈ 6.38 µg/mL)
MIC [2]: 8 µM (≈ 25.5 µg/mL)
MIC (Escherichia coli BL21): 2 µM (≈ 6.38 µg/mL)
MIC (Pseudomonas syringae): 8 µM (≈ 25.5 µg/mL)
MIC [3]: 10 µM (≈ 31.9 µg/mL)
SMILES: CC[C@H](C)[C@H](NC(=O)[C@H](CCC(=O)O)NC(=O)[C@H](CC(N)=O)NC(=O)[C@H](CCCCN)NC(=O)[C@H](CC(C)C)NC(=O)[C@H](Cc1ccc(O)cc1)NC(=O)[C@H](CCCCN)NC(=O)[C@H](CCCN=C(N)N)NC(=O)[C@@H](NC(=O)[C@@H](NC(=O)[C@H](CCC(=O)O)NC(=O)[C@H](CCCCN)NC(=O)[C@H](Cc1c[nH]c2ccccc12)NC(=O)[C@H](C)N)[C@@H](C)O)[C@@H](C)CC)C(=O)N[C@@H](CCCCN)C(=O)N[C@@H](CCCCN)C(=O)N[C@@H](CCCCN)C(=O)N[C@@H](Cc1c[nH]c2ccccc12)C(=O)N[C@@H](CCCN=C(N)N)C(=O)N[C@@H](CCCCN)C(=O)N[C@@H](C)C(=O)N[C@H](C(=O)N[C@H](C(=O)N[C@@H](C)C(=O)N[C@@H](Cc1c[nH]c2ccccc12)C(=O)O)[C@@H](C)CC)C(C)C [AWKETIRKYLKNEIKKKWRKAVIAW]

MIC [4]: 8 µM (≈ 22.7 µg/mL)
MIC [5]: 2 µM (≈ 5.69 µg/mL)
MIC [6]: 16 µM (≈ 45.5 µg/mL)
SMILES: CC[C@H](C)[C@H](N)C(=O)N[C@@H](C)C(=O)N[C@@H](CCCN=C(N)N)C(=O)N[C@@H](CCCN=C(N)N)C(=O)N[C@@H](C)C(=O)N[C@@H](CC(C)C)C(=O)N[C@@H](CCCCN)C(=O)N[C@@H](CCCCN)C(=O)N[C@@H](C)C(=O)N[C@@H](CCCCN)C(=O)N[C@@H](CCCN=C(N)N)C(=O)N[C@@H](C)C(=O)N[C@@H](C)C(=O)N[C@@H](Cc1cnc[nH]1)C(=O)N[C@@H](CCCCN)C(=O)N[C@H](C(=O)N1CCC[C@H]1C(=O)N[C@@H](C)C(=O)N[C@@H](C)C(=O)N[C@@H](CCCCN)C(=O)N[C@@H](CCCCN)C(=O)N[C@@H](Cc1ccccc1)C(=O)NCC(=O)N[C@@H](CCCN=C(N)N)C(=O)N[C@@H](CCCN=C(N)N)C(N)=O)[C@@H](C)CC [IARRALKKAKRAAHKIPAAKKFGRR]

MIC [1]: 1 µM (≈ 3.19 µg/mL)
MIC (Escherichia coli BL21): 2 µM (≈ 6.37 µg/mL)
MIC (Pseudomonas syringae): 8 µM (≈ 25.5 µg/mL)
MIC [3]: 10 µM (≈ 31.9 µg/mL)
SMILES: CC[C@H](C)[C@H](NC(=O)[C@H](CCCCN)NC(=O)[C@H](CC(N)=O)NC(=O)[C@H](CCCCN)NC(=O)[C@H](CC(C)C)NC(=O)[C@H](Cc1ccc(O)cc1)NC(=O)[C@H](CCC(N)=O)NC(=O)[C@H](CCCN=C(N)N)NC(=O)[C@@H](NC(=O)[C@@H](NC(=O)[C@H](CCC(=O)O)NC(=O)[C@H](CCCCN)NC(=O)[C@H](Cc1c[nH]c2ccccc12)NC(=O)[C@H](C)N)[C@@H](C)O)[C@@H](C)CC)C(=O)N[C@@H](CCCCN)C(=O)N[C@@H](CCCCN)C(=O)N[C@@H](CCCCN)C(=O)N[C@@H](Cc1c[nH]c2ccccc12)C(=O)N[C@@H](CCCN=C(N)N)C(=O)N[C@@H](CCCCN)C(=O)N[C@@H](C)C(=O)N[C@H](C(=O)N[C@H](C(=O)N[C@@H](C)C(=O)N[C@@H](Cc1c[nH]c2ccccc12)C(=O)O)[C@@H](C)CC)C(C)C [AWKETIRQYLKNKIKKKWRKAVIAW]
